In US20110060037A1, “USE OF NPY Y5 RECEPTOR ANTAGONISTS FOR THE PREVENTION OF PSYCHO-STIMULANT AND OPIOID ABUSE” (priority 2008, published 2011):
Entries after “also recorded” stand apart in the source; their conditions may differ.

What was measured:
NMRI mice [1] = experiment: Acute self-administration: cocaine reinforcement; type: in vivo; conditions: for nose-poking when saline was the i.v.-reinforcer (per se effect): L-152,804 10 mg/kg p.o. vs vehicle p.o.
NMRI mice [2] = experiment: Acute self-administration: food reinforcement; type: in vivo; conditions: L-152,804 10 mg/kg p.o. two hours before; fasted overnight; P=0.573 vs. vehicle pre-treated ensure; FIG. 3
Description: The self-administration apparatus used was described above. The end of the PVC tubing, mentioned above, was secured on the outside of the self-administration box at the top of the nose-poke hole, thereby enabling the mice to reach the end of the PVC tube to acquire the content used as reinforcer (ensure protein drink, Abbott Laboratories, USA). The animals fasted overnight, with water still available.
Male NMRI mice received p.o. administration of L-152,804 (10 mg/kg) or corresponding vehicle. Two hours later, the animals were subjected to the self-administration procedure described above with access to PVC tubing containing ensure (nvehicle=11, nL-152,804=13) or without any drink content (=control, n=16).
Data were analyzed using SPSS (SPSS Inc, USA). In the self-administration experiments, two animals from the L-152,804 experiment were excluded. […] In the first and third self-administration experiments, data were analyzed using one-way analysis of variance (ANOVA) followed by post-hoc LSD t-test. […] Subsequently, after significant treatment effect of cocaine, data were analyzed using one-way ANOVA followed by post-hoc LSD t-tests. […]

C57Bl/6 mice = experiment: Cocaine-induced conditioned place preference (CPP); type: in vivo
Source text: The CPP apparatus consisted of eight parallel set-ups, each consisting of two separate compartments measuring 19×19×19 cm. The walls extended upwards with clear Plexiglas plates to a total height of 43 cm, having the function of preventing the mice from jumping out, and at the same time allowing light to enter. The two compartments differed in visual as well as tactile cues. In one compartment, the walls and floor were painted white, and the floor was smooth, whereas in the other compartment, the walls were black, and the floor provided texture by insertion of a grey Lego plate. During habituation, post-conditioning test, extinction, and reinstatement, the mice were free to move between the two compartments through a square hole (3.5×3.5 cm). During conditioning, this opening was closed by insertion of a wooden plate. The movements of the animals were measured with the video-tracking program EthoVision (Noldus, Netherlands).
The CPP procedure consisted of the following consecutive phases: Habituation (2 days), conditioning (8 days), post-conditioning test (1 day), extinction (3 days), reinstatement test (1 day). Habituation (days 1-2): Each day the mice were placed into the white compartment of the CPP boxes with the door open and allowed to explore the compartments for 20 minutes to become habituated to the CPP apparatus. On the second day (i.e., the pre-conditioning test), the time spent in each of the two compartments (black or white) was recorded. This determined the preferred compartment of each mouse. No injections were given during these sessions.
Conditioning (days 3-10): Before eight daily 30 minutes conditioning sessions the animals received i.p. injections of either drug or isotonic saline, and the door between the two compartments was closed. Drug groups received drug injections on drug-days and were placed 2-5 min. later in their non-preferred compartment. On non drug-days, these animals received vehicle injections and were subsequently placed in their preferred compartment. All control animals received injections with vehicle each day and were placed in alternating compartments (black/white) on alternating days. […]
Post-conditioning test (day 11): The test was conducted on the day after the last conditioning session. Mice were allowed free access to both compartments for 20 minutes during which the amount of time spent in each compartment was recorded as described above for the pre-conditioning test. […]
Extinction and reinstatement: During an extinction period of three days the animals were exposed to the apparatus as during the post-conditioning test for 20 minutes each day with open doors and without prior injection. […] Subsequently, the time spent in the previously drug-paired (non-preferred) compartment was recorded for 20 min. […]

NMRI mice [3] = experiment: Cocaine-induced hyperactivity; type: in vivo
Source text: The apparatus for measuring locomotor hyperactivity consisted of 16 activity Plexiglas boxes (37×21×17 cm). Eight dual photocells placed throughout the length of each box, detected movement of the animals. A plate was placed on top of the box in order to keep the mice from jumping out during the sessions. Sawdust was placed in a thin layer on the floor of the box. All activity boxes were connected to an interface (SG 502, Med. Associates Inc., East Fairfield, Vt., USA), measuring each beam-break. A computer and activity software (Ellegaard Systems, DK) were used to record the results from each activity box.
In all activity experiments an i.p. injection of either vehicle or drug was administered 3-7 minutes before testing. The animal was then placed in an activity box and the activity was measured for 30 minutes. […]
Conditioned place preference data were analysed using repeated measure one-way ANOVA between days within each group on all four groups of both experiments. […] Post-conditioning test and reinstatement presented as percent of its own saline group were analysed with a one-way ANOVA followed by post-hoc LSD t-tests. Total crossings were analysed with a one-way ANOVA followed by post-hoc LSD t-tests. Data presented as 5 minutes intervals was analysed using repeated measures ANOVA with treatment as between subjects factor followed by LSD post-hoc t-test. […]

Y5 receptor = target: T1, Y5 receptor (Mus musculus, UniProt O70342); conditions: cited from earlier work
T1 construct: close to 80% Y5 receptor occupancy in the mouse brain has also been observed between one and four hours after oral administration; host or cells: mouse brain (in vivo, after oral dosing)
T1 sequence (O70342 1-466): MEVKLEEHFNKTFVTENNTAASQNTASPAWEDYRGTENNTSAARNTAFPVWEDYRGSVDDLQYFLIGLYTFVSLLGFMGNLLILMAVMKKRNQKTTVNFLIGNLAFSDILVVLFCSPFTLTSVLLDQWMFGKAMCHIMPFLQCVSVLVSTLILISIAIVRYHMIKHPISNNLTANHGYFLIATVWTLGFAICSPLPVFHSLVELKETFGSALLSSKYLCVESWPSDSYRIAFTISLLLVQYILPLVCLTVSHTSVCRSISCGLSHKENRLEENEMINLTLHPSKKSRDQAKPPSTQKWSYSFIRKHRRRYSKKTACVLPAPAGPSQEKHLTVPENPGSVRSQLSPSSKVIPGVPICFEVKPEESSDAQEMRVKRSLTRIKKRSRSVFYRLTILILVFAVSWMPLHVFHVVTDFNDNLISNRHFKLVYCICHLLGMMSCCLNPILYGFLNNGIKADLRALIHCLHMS

[4] = 2 hrs after oral administration, 10 mg/kg; cited from earlier work
rats = rats treated with L-152,804; cited from earlier work
Y5-KO and WT mice = experiment: Acute self-administration of cocaine in Y5-KO and WT mice; type: in vivo; conditions: inverted U-shaped curve, FIG. 4

With `CC1(C)CC(=O)C(C2C3=C(CC(C)(C)CC3=O)Oc3ccccc32)C(=O)C1` [L-152,804, 5,5-Dimethyl-2-(2,3,4,9-tetrahydro-3,3-dimethyl-1oxo-1H-xanthen-9-yl)-1,3-cyclohexanedione] as the compound, how does the “nose-poking when saline was the i.v.-reinforcer (per se effect)” value (NMRI mice [1]) read?
Its value is “no effect; also recorded: did not significantly decrease”.

What about the “nose-poking when saline was the i.v.-reinforcer (per se effect)” value (NMRI mice [1]; listed as L-152,802) of the same compound?
The value was “No per se effect”.

What about the “self-administration of cocaine (nose-poking), significance of decrease” value (NMRI mice [1]; L-152,804 10 mg/kg p.o., cocaine 0.03 mg/kg/infusion, P=0.004) of the same compound?
The value was “reaching significance”.

What about the “cocaine self-administration vs. saline i.v. in L-152,804-pretreated mice” value (NMRI mice [1]; L-152,804 10 mg/kg p.o., cocaine 0.01-1.0 mg/kg/infusion, post-hoc LSD t-tests) of the same compound?
Its value is “no significant doses vs. saline; also recorded: did not self-administer cocaine at a significantly higher rate”.

And the “downward shift of the cocaine dose-response curve (efficacy of cocaine)” value (NMRI mice [1]; L-152,804 10 mg/kg p.o., vertex of fitted parabola, likelihood ratio test P<0.001)?
The value was “shifted down; also recorded: shifted significantly downward”.

What about the “shift of the cocaine dose-response curve to the right or left (potency of cocaine)” value (NMRI mice [1]; L-152,804 10 mg/kg p.o., vertex of fitted parabola, likelihood ratio test P=0.25) of the same compound?
The value was “neither shifted significantly to the right nor to the left; also recorded: showed a tendency toward a rightward shift”.

And the “self-administration of cocaine (nose-poking), significance of decrease” value (NMRI mice [1]; L-152,804 30 mg/kg p.o., cocaine 0.03 mg/kg/infusion, P=0.002)?
Its value is “reaching significance”.

What about the “self-administration of cocaine (nose-poking)” value (NMRI mice [1]; cocaine 0.03 mg/kg/infusion i.v., L-152,804 3, 10 or 30 mg/kg p.o. two hours before, FIG. 1) of the same compound?
Its value is “significantly and dose-dependently decreased”.

And the “nose-poking frequency of i.v.-administered cocaine at the other self-administered cocaine dose” value (NMRI mice [1]; second experiment, L-152,804 10 mg/kg p.o., cocaine 0.01 mg/kg/infusion as printed)?
Its value is “showed a similar trend”.

And the “nose-poking frequency of i.v.-administered cocaine at the peak dose of cocaine” value (NMRI mice [1]; second experiment, L-152,804 10 mg/kg p.o., cocaine 0.03 mg/kg/infusion, P=0.006, FIG. 2)?
The value was “significantly reduced”.

What about the “food (ensure protein drink) self-administration” value (NMRI mice [2]) of the same compound?
Its value is “had no effect; also recorded: did not alter”.

What about the “induction of cocaine place preference (post-conditioning vs. pre-conditioning test)” value (C57Bl/6 mice; L-152,804 3, 10, 30 mg/kg p.o. two hours prior to cocaine 10 mg/kg i.p. conditioning, FIG. 5A) of the same compound?
The value was “did not attenuate; also recorded: caused significant place preference similar to that observed without the Y5-antagonist”.

And the “reinstatement of cocaine-induced place preference vs. own pre-conditioning test” value (C57Bl/6 mice; L-152,804 3, 10, 30 mg/kg p.o., cocaine priming 5 mg/kg, FIG. 5A)?
The value was “absent; also recorded: prevented significant reinstatement”.

And the “reinstatement as percent of the vehicle p.o./saline i.p. group” value (C57Bl/6 mice; L-152,804 3, 10, 30 mg/kg p.o., cocaine priming 5 mg/kg, FIG. 5B)?
The value was “dose-dependently attenuated; also recorded: only the highest dose of L-152,804 (30 mg/kg) blocked reinstatement”.

And the “extinction of cocaine place preference” value (C57Bl/6 mice; L-152,804 3, 10, 30 mg/kg p.o., three extinction days, vehicle/cocaine group reached full extinction on day 3)?
Its value is “significantly faster; also recorded: full extinction already on the first extinction day”.

What about the “cocaine-induced hyperactivity (locomotor activity, beam crossings)” value (NMRI mice [3]; L-152,804 10 mg/kg p.o. two hours prior to cocaine 10 mg/kg, 30 min observation and 5-min intervals, FIG. 7) of the same compound?
Its value is “appeared to be attenuated; also recorded: prevented a significant cocaine-induced increase in locomotor activity”.

And the “locomotor activity in saline i.p.-treated animals” value (NMRI mice [3]; L-152,804 10 mg/kg p.o. vs vehicle)?
Its value is “No effect”.

What about the “Y5 receptor occupancy in mouse brain” value (Y5 receptor; 2 h after oral administration of L-152,804) of the same compound?
Its value is 80%.

What about the “Y5 receptor occupancy in the mouse brain” value (Y5 receptor; between one and four hours after oral administration of L-152,804) of the same compound?
Its value is ~80%.

What about the “amount of L-152,804 in the rat brain” value [4] of the same compound?
Its value is “significant amount”.

What about the distance travelled (rats) of the same compound?
The distance travelled was “no change in distance travelled”.

With `COC(=O)[C@H]1[C@@H](OC(=O)c2ccccc2)C[C@@H]2CC[C@H]1N2C` [cocaine] as the compound, how does the “cocaine dose at which self-administration reaches maximum” value (NMRI mice [1]; vehicle p.o. pre-treated NMRI mice, inverted U-shaped curve) read?
Its value is 0.03 mg/kg/infusion.

What about the “cocaine dose at which self-administration reaches maximum” value (Y5-KO and WT mice) of the same compound?
The value was 0.03 mg/kg/infusion.
